Legend:
Format in all cases: in vivo
[1] = system: Zea mays; assay: Crop compatibility pre-emergence (greenhouse pot trial); conditions: effect vs untreated controls
How it was run: (§1)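 After soil-surface application of each compound to freshly sown pots (aqueous spray, 600 L/ha, 0.5% additive), plants grew under greenhouse conditions. Around 3 weeks later, injury was estimated visually on a 0–100% scale against controls.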

[2] = system: Oryza sativa; assay: as above; conditions: effect vs untreated controls
How it was run: as §1

[3] = system: Glycine max; assay: as above; conditions: effect vs untreated controls
How it was run: as §1

[4] = system: Abutilon theophrasti; assay: Herbicidal action pre-emergence (greenhouse pot trial); conditions: scored after about 3 weeks
How it was run: (§2)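 Application rates of 320 g/ha or lower were used, with compounds delivered onto covering soil before weed emergence. After roughly three weeks in the greenhouse, damage was judged by eye as a percentage versus untreated plants.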

[5] = system: Pharbitis purpurea; assay: as above
How it was run: as §2

[6] = system: Digitaria sanguinalis; assay: as above; conditions: application rate 80 g/ha
How it was run: as §2

[7] = system: Polygonum convolvulus; assay: as above; conditions: application rate 80 g/ha, scored after about 3 weeks
How it was run: as §2

[8] = system: Setaria viridis; assay: as above; conditions: scored after about 3 weeks
How it was run: as §2

[9] = system: Echinochloa crus-galli; assay: as above; conditions: scored after about 3 weeks
How it was run: as §2

[10] = system: Matricaria inodora; assay: as above; conditions: scored after about 3 weeks
How it was run: as §2

[11] = system: Viola tricolor; assay: as above; conditions: scored after about 3 weeks
How it was run: as §2

[12] = system: Veronica persica; assay: as above
How it was run: as §2

[13] = system: Amaranthus retroflexus; assay: as above; conditions: scored after about 3 weeks
How it was run: as §2

[14] = system: Stellaria media; assay: as above; conditions: scored after about 3 weeks
How it was run: as §2

[15] = system: Abutilon theophrasti; assay: Herbicidal action post-emergence (greenhouse pot trial); conditions: scored visually after about 3 weeks vs untreated controls
How it was run: (§3)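 Sowing in sandy loam, then 2–3 weeks of controlled greenhouse growth. Next, one-leaf-stage plants received a foliar spray of the WP- or EC-formulated compound with 0.5% additive (600 L/ha water, application rate of 80 g/ha or below). Finally, after about 3 weeks under optimal conditions, effect was judged by eye against controls.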

[16] = system: Pharbitis purpurea; assay: as above
How it was run: as §3

[17] = system: Digitaria sanguinalis; assay: as above; conditions: application rate 20 g/ha
How it was run: as §3

[18] = system: Polygonum convolvulus; assay: as above; conditions: scored visually after about 3 weeks vs untreated controls
How it was run: as §3

[19] = system: Setaria viridis; assay: as above; conditions: scored visually after about 3 weeks vs untreated controls
How it was run: as §3

[20] = system: Echinochloa crus-galli; assay: as above; conditions: scored visually after about 3 weeks vs untreated controls
How it was run: as §3

[21] = system: Matricaria inodora; assay: as above; conditions: scored visually after about 3 weeks vs untreated controls
How it was run: as §3

[22] = system: Viola tricolor; assay: as above
How it was run: as §3

[23] = system: Veronica persica; assay: as above
How it was run: as §3

[24] = system: Amaranthus retroflexus; assay: as above; conditions: scored visually after about 3 weeks vs untreated controls
How it was run: as §3

[25] = system: Stellaria media; assay: as above; conditions: scored visually after about 3 weeks vs untreated controls
How it was run: as §3

[26] = system: Zea mays; assay: Crop compatibility post-emergence (greenhouse pot trial)
How it was run: (§4)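 Visual % damage vs untreated controls, ~3 wk post-spray (100% = plants died, 0% = as control). Plants in sandy loam, greenhouse, sprayed at one-leaf stage (2–3 wk after sowing); WP/EC in water + 0.5% additive, 600 L/ha.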

[27] = system: Oryza sativa; assay: as above; conditions: application rate 20 g/ha
How it was run: as §4

[28] = system: Triticum aestivum; assay: as above; conditions: application rate 20 g/ha
How it was run: as §4

[29] = system: Cyperus esculentus; assay: Herbicidal action pre-emergence (greenhouse pot trial); conditions: application rate 320 g/ha
How it was run: as §2

[30] = system: Lolium rigidum; assay: as above; conditions: application rate 320 g/ha
How it was run: as §2

[31] = system: Alopecurus myosuroides; assay: as above; conditions: application rate 320 g/ha, scored after about 3 weeks
How it was run: as §2

[32] = system: Avena fatua; assay: as above; conditions: application rate 320 g/ha
How it was run: as §2

[33] = system: Hordeum murinum; assay: as above; conditions: application rate 320 g/ha
How it was run: as §2

[34] = system: Lolium rigidum; assay: Herbicidal action post-emergence (greenhouse pot trial); conditions: application rate 80 g/ha, scored visually after about 3 weeks vs untreated controls
How it was run: as §3

[35] = system: Alopecurus myosuroides; assay: as above; conditions: application rate 80 g/ha, scored visually after about 3 weeks vs untreated controls
How it was run: as §3

[36] = system: Glycine max; assay: Crop compatibility post-emergence (greenhouse pot trial); conditions: application rate 5 g/ha
How it was run: as §4

[37] = system: Avena fatua; assay: Herbicidal action post-emergence (greenhouse pot trial); conditions: application rate 80 g/ha, scored visually after about 3 weeks vs untreated controls
How it was run: as §3

CCC(Sc1cc(-n2c(=O)cc(C(F)(F)F)n(C)c2=O)c(F)cc1Cl)C(=O)OCC1CCCO1 (centres unmarked) [I.2-71]
100%: Abutilon theophrasti (Efficacy in %) ([4]; application rate 80 g/ha) | Pharbitis purpurea (Efficacy in %) ([5]; application rate 80 g/ha) | Digitaria sanguinalis (Efficacy in %) [6] | Polygonum convolvulus (Efficacy in %) [7] | Setaria viridis (Efficacy in %) ([8]; application rate 80 g/ha) | Echinochloa crus-galli (Efficacy in %) ([9]; application rate 80 g/ha) | Matricaria inodora (Efficacy in %) ([10]; application rate 80 g/ha) | Viola tricolor (Efficacy in %) ([11]; application rate 80 g/ha) | Veronica persica (Efficacy in %) ([12]; application rate 80 g/ha) | Amaranthus retroflexus (Efficacy in %) ([13]; application rate 80 g/ha) | Stellaria media (Efficacy in %) ([14]; application rate 80 g/ha) | Abutilon theophrasti (Efficacy in %) ([15]; application rate 20 g/ha) | Pharbitis purpurea (Efficacy in %) ([16]; application rate 20 g/ha) | Digitaria sanguinalis (Efficacy in %) [17] | Polygonum convolvulus (Efficacy in %) ([18]; application rate 20 g/ha) | Matricaria inodora (Efficacy in %) ([21]; application rate 20 g/ha) | Viola tricolor (Efficacy in %) ([22]; application rate 20 g/ha) | Veronica persica (Efficacy in %) ([23]; application rate 20 g/ha) | Amaranthus retroflexus (Efficacy in %) ([24]; application rate 20 g/ha) | Stellaria media (Efficacy in %) ([25]; application rate 20 g/ha)
10%: Zea mays (Efficacy in %) ([1]; application rate 80 g/ha)
0%: Oryza sativa (Efficacy in %) ([2]; application rate 20 g/ha) | Glycine max (Efficacy in %) ([3]; application rate 80 g/ha) | Zea mays (Efficacy in %) ([26]; application rate 5 g/ha)
80%: Echinochloa crus-galli (Efficacy in %) ([20]; application rate 20 g/ha)
20%: Oryza sativa (Efficacy in %) [27] | Triticum aestivum (Efficacy in %) [28]
90%: Setaria viridis (Efficacy in %) ([19]; application rate 20 g/ha)

CC(Sc1cc(-n2c(=O)cc(C(F)(F)F)n(C)c2=O)c(F)cc1Cl)C(=O)OCC1CCCS1 (centres unmarked) [I.1-81]
90%: Polygonum convolvulus (Efficacy in %) ([18]; application rate 20 g/ha) | Matricaria inodora (Efficacy in %) ([21]; application rate 20 g/ha)
20%: Triticum aestivum (Efficacy in %) [28]
10%: Zea mays (Efficacy in %) ([26]; application rate 20 g/ha)
80%: Matricaria inodora (Efficacy in %) ([10]; application rate 80 g/ha) | Veronica persica (Efficacy in %) ([12]; application rate 80 g/ha)
0%: Zea mays (Efficacy in %) ([1]; application rate 80 g/ha) | Glycine max (Efficacy in %) ([3]; application rate 80 g/ha) | Oryza sativa (Efficacy in %) [27]
100%: Abutilon theophrasti (Efficacy in %) ([4]; application rate 80 g/ha) | Polygonum convolvulus (Efficacy in %) [7] | Viola tricolor (Efficacy in %) ([11]; application rate 80 g/ha) | Amaranthus retroflexus (Efficacy in %) ([13]; application rate 80 g/ha) | Abutilon theophrasti (Efficacy in %) ([15]; application rate 20 g/ha) | Viola tricolor (Efficacy in %) ([22]; application rate 20 g/ha) | Veronica persica (Efficacy in %) ([23]; application rate 20 g/ha) | Amaranthus retroflexus (Efficacy in %) ([24]; application rate 20 g/ha)

CC(Sc1cc(-n2c(=O)cc(C(F)(F)F)n(C)c2=O)c(F)cc1Cl)C(=O)NCC1CCCO1 (centres unmarked) [I.1-271]
10%: Glycine max (Efficacy in %) ([3]; application rate 20 g/ha) | Zea mays (Efficacy in %) ([26]; application rate 20 g/ha) | Oryza sativa (Efficacy in %) [27]
0%: Zea mays (Efficacy in %) ([1]; application rate 20 g/ha)
100%: Abutilon theophrasti (Efficacy in %) ([4]; application rate 320 g/ha) | Pharbitis purpurea (Efficacy in %) ([5]; application rate 320 g/ha) | Lolium rigidum (Efficacy in %) [30] | Alopecurus myosuroides (Efficacy in %) [31] | Setaria viridis (Efficacy in %) ([8]; application rate 320 g/ha) | Echinochloa crus-galli (Efficacy in %) ([9]; application rate 320 g/ha) | Avena fatua (Efficacy in %) [32] | Matricaria inodora (Efficacy in %) ([10]; application rate 320 g/ha) | Viola tricolor (Efficacy in %) ([11]; application rate 320 g/ha) | Veronica persica (Efficacy in %) ([12]; application rate 320 g/ha) | Amaranthus retroflexus (Efficacy in %) ([13]; application rate 320 g/ha) | Stellaria media (Efficacy in %) ([14]; application rate 320 g/ha) | Hordeum murinum (Efficacy in %) [33] | Abutilon theophrasti (Efficacy in %) ([15]; application rate 80 g/ha) | Pharbitis purpurea (Efficacy in %) ([16]; application rate 80 g/ha) | Polygonum convolvulus (Efficacy in %) ([18]; application rate 80 g/ha) | Lolium rigidum (Efficacy in %) [34] | Alopecurus myosuroides (Efficacy in %) [35] | Setaria viridis (Efficacy in %) ([19]; application rate 80 g/ha) | Matricaria inodora (Efficacy in %) ([21]; application rate 80 g/ha) | Viola tricolor (Efficacy in %) ([22]; application rate 80 g/ha) | Veronica persica (Efficacy in %) ([23]; application rate 80 g/ha) | Amaranthus retroflexus (Efficacy in %) ([24]; application rate 80 g/ha) | Stellaria media (Efficacy in %) ([25]; application rate 80 g/ha)
80%: Cyperus esculentus (Efficacy in %) [29]
20%: Oryza sativa (Efficacy in %) ([2]; application rate 20 g/ha) | Glycine max (Efficacy in %) [36] | Triticum aestivum (Efficacy in %) [28]
90%: Echinochloa crus-galli (Efficacy in %) ([20]; application rate 80 g/ha)

Cn1c(C(F)(F)F)cc(=O)n(-c2cc(SCC(=O)NCC3CCCO3)c(Cl)cc2F)c1=O (centres unmarked) [I.8-271]
20%: Zea mays (Efficacy in %) ([1]; application rate 80 g/ha) | Zea mays (Efficacy in %) ([26]; application rate 80 g/ha)
0%: Oryza sativa (Efficacy in %) ([2]; application rate 80 g/ha)
100%: Abutilon theophrasti (Efficacy in %) ([4]; application rate 320 g/ha) | Pharbitis purpurea (Efficacy in %) ([5]; application rate 320 g/ha) | Setaria viridis (Efficacy in %) ([8]; application rate 320 g/ha) | Matricaria inodora (Efficacy in %) ([10]; application rate 320 g/ha) | Viola tricolor (Efficacy in %) ([11]; application rate 320 g/ha) | Veronica persica (Efficacy in %) ([12]; application rate 320 g/ha) | Amaranthus retroflexus (Efficacy in %) ([13]; application rate 320 g/ha) | Abutilon theophrasti (Efficacy in %) ([15]; application rate 80 g/ha) | Pharbitis purpurea (Efficacy in %) ([16]; application rate 80 g/ha) | Polygonum convolvulus (Efficacy in %) ([18]; application rate 80 g/ha) | Alopecurus myosuroides (Efficacy in %) [35] | Setaria viridis (Efficacy in %) ([19]; application rate 80 g/ha) | Matricaria inodora (Efficacy in %) ([21]; application rate 80 g/ha) | Viola tricolor (Efficacy in %) ([22]; application rate 80 g/ha) | Veronica persica (Efficacy in %) ([23]; application rate 80 g/ha) | Amaranthus retroflexus (Efficacy in %) ([24]; application rate 80 g/ha) | Stellaria media (Efficacy in %) ([25]; application rate 80 g/ha)
90%: Alopecurus myosuroides (Efficacy in %) [31] | Avena fatua (Efficacy in %) [32] | Stellaria media (Efficacy in %) ([14]; application rate 320 g/ha) | Avena fatua (Efficacy in %) [37]
80%: Echinochloa crus-galli (Efficacy in %) ([9]; application rate 320 g/ha) | Echinochloa crus-galli (Efficacy in %) ([20]; application rate 80 g/ha)
